Tests used:
[1] = molecular target: T1, Coelenterazine h 2-monooxygenase (Renilla reniformis, UniProt P27652)
T1 sequence (P27652 whole entry): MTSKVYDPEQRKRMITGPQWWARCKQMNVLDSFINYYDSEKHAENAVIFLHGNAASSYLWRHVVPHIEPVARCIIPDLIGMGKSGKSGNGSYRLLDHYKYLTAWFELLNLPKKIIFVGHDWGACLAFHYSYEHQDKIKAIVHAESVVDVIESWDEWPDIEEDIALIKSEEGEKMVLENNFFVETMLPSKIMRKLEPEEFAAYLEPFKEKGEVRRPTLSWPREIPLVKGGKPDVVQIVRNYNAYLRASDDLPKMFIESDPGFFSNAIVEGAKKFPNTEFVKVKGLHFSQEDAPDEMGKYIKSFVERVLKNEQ
Description: GSK_PKIS: Inhibition of Sea Pansy Luciferase (Data from PubChem: AID 652015) [NIH NCATS]

[2] = molecular target: Luciferin 4-monooxygenase (Photinus pyralis, UniProt P08659)
Sequence of Luciferin 4-monooxygenase (P08659 whole entry): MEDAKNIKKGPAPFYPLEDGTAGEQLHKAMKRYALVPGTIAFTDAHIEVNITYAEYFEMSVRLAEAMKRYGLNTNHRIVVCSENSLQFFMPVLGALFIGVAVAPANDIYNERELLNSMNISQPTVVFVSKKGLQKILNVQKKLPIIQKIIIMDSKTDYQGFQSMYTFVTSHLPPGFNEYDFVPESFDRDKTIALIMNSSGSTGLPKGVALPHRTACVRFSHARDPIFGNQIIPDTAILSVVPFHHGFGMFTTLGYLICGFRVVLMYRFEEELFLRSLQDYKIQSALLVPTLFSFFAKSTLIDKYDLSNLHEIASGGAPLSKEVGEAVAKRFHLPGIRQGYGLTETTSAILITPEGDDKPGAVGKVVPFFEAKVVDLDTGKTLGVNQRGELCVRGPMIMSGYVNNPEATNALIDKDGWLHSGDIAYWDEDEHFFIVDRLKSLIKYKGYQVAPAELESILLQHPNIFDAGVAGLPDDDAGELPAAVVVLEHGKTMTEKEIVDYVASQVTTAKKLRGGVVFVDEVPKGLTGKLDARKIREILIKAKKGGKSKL
Description: GSK_PKIS: Inhibition of Firefly Luciferase (Data from PubChem: AID 652016) [NIH NCATS]

| Compound | AC50 [1] | AC50 [2] | AC50 ([2]; read-out: AC50) | AC50 ([1]; read-out: AC50) |
| --- | --- | --- | --- | --- |
| CS(=O)(=O)Nc1ccc(-c2cc(-c3ccccc3)cc(C(N)=O)c2N)cc1 [GSK-586581A] | Phenotype: Inactive; Curve_Description: None | Phenotype: Inactive; Curve_Description: None | – | – |
| CCOc1ccc2c(-c3ccnc(Nc4cc(OC)cc(C(F)(F)F)c4)n3)cnn2n1 [GW807982X] | Phenotype: Activator; Curve_Description: None | – | 14.6 µM | – |
| Cc1cccc(Nc2ncc(-c3ccccc3)o2)c1 [GW632046X] | Phenotype: Inactive; Curve_Description: None | – | 0.58 µM | – |
| COC(=O)Nc1nc2cc(Oc3ccc(NC(=O)Nc4cccc(Br)c4)cc3)ccc2[nH]1.Cl [GW694234A] | Phenotype: Inactive; Curve_Description: None | Phenotype: Inactive; Curve_Description: None | – | – |
| CCCN1CCC(c2ccc(Nc3nc(Nc4cc(F)ccc4C(N)=O)c4cc[nH]c4n3)c(OC)c2)CC1 [GSK-1326255A] | – | Phenotype: Inactive; Curve_Description: None | – | 18.3 µM |
| Nc1ncnc2occ(-c3ccc(NC(=O)Nc4cc(C(F)(F)F)ccc4F)cc3)c12 [GW770249X] | Phenotype: Inactive; Curve_Description: None | Phenotype: Inactive; Curve_Description: None | – | – |
| COc1cc2c(cc1Nc1nc(N3CCc4ccccc43)c3cc[nH]c3n1)N(C(=O)CN(C)C)CC2 [GSK-2186269A] | – | Phenotype: Inactive; Curve_Description: None | – | 23.1 µM |
| Cl.NS(=O)(=O)c1ccc(N/N=C2\C(=O)Nc3cccc(CCc4ccncc4)c32)cc1 [GW352430A] | Phenotype: Inactive; Curve_Description: None | Phenotype: Inactive; Curve_Description: None | – | – |
| Cl.c1ccc(-c2nc3n(c2-c2ccc4c(c2)OCO4)CCC3)nc1 | Phenotype: Inactive; Curve_Description: None | Phenotype: Inactive; Curve_Description: None | – | – |
| CCS(=O)(=O)c1ccc(OC)c(Nc2ncc(-c3cccc(C(C)=O)c3)o2)c1 [GW621431X] | Phenotype: Inactive; Curve_Description: None | Phenotype: Inactive; Curve_Description: None | – | – |
| CN(C)C(=O)O[C@@H]1CN[C@@H](C#Cc2cc3ncnc(Nc4ccc(OCc5cccc(F)c5)c(Cl)c4)c3s2)C1 [GSK-238063A] | Phenotype: Inactive; Curve_Description: None | – | 32.6 µM | – |
| NS(=O)(=O)c1cccc(-c2ccc3c(NC(=O)C4CC4)n[nH]c3c2)c1 | – | – | 20.6 µM | 36.6 µM |
| COc1ccc(-c2coc3ncnc(N)c23)cc1 [GW642125X] | – | Phenotype: Inactive; Curve_Description: None | – | 20.6 µM |
| CC1=C(C(=O)Nc2ccc3[nH]nc(C)c3c2)C(c2ccc(C(F)(F)F)cc2)CC(=O)N1 (centres undefined) [GSK-466314A] | Phenotype: Inactive; Curve_Description: None | Phenotype: Inactive; Curve_Description: None | – | – |
| CS(=O)(=O)CCNCc1ccc(-c2ccc3ncnc(Nc4ccc(OCc5ccccc5)c(C(F)(F)F)c4)c3c2)o1.Cl [GW574782A] | Phenotype: Inactive; Curve_Description: None | Phenotype: Inactive; Curve_Description: None | – | – |
| NS(=O)(=O)c1ccc(N/N=C2\C(=O)Nc3ccc(C(=O)NCCc4c[nH]cn4)cc32)cc1 [GW300660X] | – | Phenotype: Inactive; Curve_Description: None | – | 16.3 µM |
| Nc1nccc(C#Cc2cncnc2Nc2ccc(OCc3cccc(F)c3)c(Cl)c2)n1 [GW799251X] | Phenotype: Inactive; Curve_Description: None | – | 14.6 µM | – |
| CCN1CCC(CC(=O)Nc2n[nH]c3nnc(-c4cccc(F)c4F)cc23)CC1.O=C(O)C(O)C(O)C(=O)O | Phenotype: Inactive; Curve_Description: None | – | 41.1 µM | – |
| CCn1c(-c2nonc2N)nc2c(C#CC(C)(C)O)ncc(OCC3CCNCC3)c21.O=C(O)C(F)(F)F [GSK-554170A] | Phenotype: Inactive; Curve_Description: None | Phenotype: Inactive; Curve_Description: None | – | – |

| Compound | AC50 [1] | AC50 [2] | AC50 ([2]; read-out: AC50) | AC50 ([1]; read-out: AC50) |
| --- | --- | --- | --- | --- |
| CCS(=O)(=O)c1ccc(OC)c(Nc2ncc(-c3cccc(-c4ccccc4F)c3)o2)c1 [GW678313X] | Phenotype: Inactive; Curve_Description: None | Phenotype: Inactive; Curve_Description: None | – | – |
| COc1cc(C=NNc2ncnc3c2cnn3-c2ccccc2)ccc1O [GW513184X] | Phenotype: Inactive; Curve_Description: None | Phenotype: Inactive; Curve_Description: None | – | – |
| NC(=O)c1sc(-n2cnc3cc(C(F)(F)F)ccc32)cc1OCc1ccccc1Br [GW853609X] | Phenotype: Inactive; Curve_Description: None | Phenotype: Inactive; Curve_Description: None | – | – |
| Cc1ccc(O)cc1Nc1ccnc2cc(-c3ccccn3)ccc12 [GW440139A] | – | – | 20.6 µM | 23.1 µM |
| COc1cccc(-n2nc(C)c3c(N/N=C(\C)c4ccncc4)ncnc32)c1 [GW809885X] | Phenotype: Inactive; Curve_Description: None | Phenotype: Inactive; Curve_Description: None | – | – |
| N#Cc1ccc2c(-c3ccnc(NC4CC4)n3)c(-c3ccc(F)cc3)nn2c1 [GW561436X] | Phenotype: Inactive; Curve_Description: None | – | 46.1 µM | – |
| O=C1NC(=O)C(c2cccc(Cl)c2)=C1Nc1ccc(Cl)c(C(=O)O)c1 | Phenotype: Inactive; Curve_Description: None | Phenotype: Inactive; Curve_Description: None | – | – |
| Fc1ccc(-c2ncn(C3CCNCC3)c2-c2ccnc(Oc3ccc4c(c3)OCO4)n2)cc1 | Phenotype: Inactive; Curve_Description: None | – | 32.6 µM | – |
| Cl.O=S(=O)(CCNCc1ccc(-c2ccc3ncnc(Nc4ccc(OCc5cccc(F)c5)c(Cl)c4)c3c2)o1)c1ccccc1 [GW633459A] | Phenotype: Inactive; Curve_Description: None | – | 29.1 µM | – |
| COc1cc(Nc2nccc(Nc3ccc4c(C)n[nH]c4c3)n2)cc(OC)c1OC [GW612286X] | – | – | 18.3 µM | 36.6 µM |
| COc1ccc2cc(-c3c(-c4ccncc4)nc(-c4ccc(S(C)(=O)=O)cc4C)n3C)ccc2c1 | Phenotype: Inactive; Curve_Description: None | Phenotype: Inactive; Curve_Description: None | – | – |
| CCc1cccc(NC(=O)Nc2ccc(Oc3ccc4nc(NC(=O)OC)[nH]c4c3)cc2)c1 [GW673715X] | Phenotype: Inactive; Curve_Description: None | – | 32.6 µM | – |
| COc1cc2ncn(-c3cc(OCc4ccccc4Cl)c(C(N)=O)s3)c2cc1OC [GW852849X] | Phenotype: Inactive; Curve_Description: None | Phenotype: Inactive; Curve_Description: None | – | – |
| Cc1cccc(-c2n[nH]cc2-c2ccc3ncccc3n2)n1 [GW786460X] | Phenotype: Inactive; Curve_Description: None | Phenotype: Inactive; Curve_Description: None | – | – |
| COc1cccc(COc2cc(-n3cnc4ccccc43)sc2C(N)=O)c1 [GW804482X] | – | Phenotype: Inactive; Curve_Description: None | – | 20.6 µM |
| CC1(C)CC(n2cnc(-c3ccc(F)cc3)c2-c2ccnc(N)n2)CC(C)(C)N1 | Phenotype: Inactive; Curve_Description: None | – | 41.1 µM | – |
| COc1cc2ncn(-c3cc(O[C@@H](C)c4ccccc4Cl)c(C(N)=O)s3)c2cc1OC [GSK-237700A] | Phenotype: Inactive; Curve_Description: None | Phenotype: Inactive; Curve_Description: None | – | – |
| Cc1cc(O)cc(C)c1/C=C/c1cncc(C(=O)N(C)C)c1 [GW427984X] | Phenotype: Inactive; Curve_Description: None | Phenotype: Inactive; Curve_Description: None | – | – |

From ChEMBL document CHEMBL2303647, “Data associated with the publication PLoS ONE, 8(3), e57888, (2013) PMID: 23505445. Compounds: GSK PKIS; Assays: NIH NCATS”
